# Experiment: Clinical study in healthy subjects: body weight, BMI, blood pressure, pulse
# Type: in vivo, human
# Settings: 6 weeks
# Procedure: The goal of this study was to test the safety and efficacy of an EPA-enriched oil (as described in Examples 1-3; E.I. duPont de Nemours & Co., Inc. Applied Biosciences, Wilmington, Del.), to corroborate the safety of a novel oil rich in EPA in humans prior to this product being placed on the market as a dietary supplement. This oil was tested at doses of 600 mg and 1800 mg of EPA/day as compared […] parallel arm design in approximately 120 healthy adults studied in both the fasting and post-prandial state. Safety was monitored by assessing for adverse reactions, measuring vital signs and a variety of laboratory tests including a complete metabolic profile, thyroid function tests, complete blood count, and prothrombin time.
# The objective was to carry out a double blinded, randomized, placebo-controlled trial in 120 healthy subjects between 20-70 years of age over a 6 week period comparing the effects of an EPA-enriched oil provided at daily […] Specific parameters investigated included changes in body weight, heart rate, blood pressure, complete blood count, comprehensive metabolic profile, lipid and lipoprotein measures in the fasted and fed state, fatty acid profiles, and inflammation markers.
# At all visits the following information was recorded: weight in pounds and kilograms, height in centimeters [“cm”] and inches, waist circumference in cm and inches, resting heart rate, systolic blood pressure, diastolic blood pressure, and a brief dietary assessment to assure continued lack of high fish intake and/or flax seed or fish oil dietary supplements. Blood pressure and pulse measurements were done 3 times on each visit after the subjects had been sitting quietly for 5 minutes.
# At the time of the enrollment visit all subjects were randomly allocated into a protocol where they were required to take two capsules three times daily which contained a either: 1) olive oil placebo; 2) 600 mg/day of EPA/day; 3) 1800 mg of EPA/day; and, […]). The EPA oils are notable for their low levels of saturated fatty acids, particularly with regard to the DHA oil. Specifically, the composition of the DHA oil was as follows (g fatty acid per 100 g of oil): 14.1 g myristic acid (14:0), 10.8 g palmitic acid (16:0), 2 g palmitoleic acid (16.1), 7.4 g margaric acid (17:0), 8.4 g oleic acid (18:1), 0.1 g EPA (20:5n3), 0.9 g DPA (22:5n6) and 37.9 g DHA (22:6n3).
# At visit 2, subjects were again asked to fast for 12 hours, and information about subject characteristics including all vital signs, recent illness or hospitalization, medication and supplement use, and diet information was again obtained. […] At one week and three weeks after beginning the supplements, all study subjects were contacted by telephone and asked about any adverse effects and about their compliance, and the information on their calendars with regard to capsule use and fish intake. They were also asked about whether they had experienced any fishy aftertaste or odor, and if so, how frequent were these episodes, and how unpleasant were they? The entire process as listed above was repeated after study subjects were on the study capsules for 6 weeks at the time of the final visit. Compliance and adverse events were assessed by telephone at weeks 1 and 3 by telephone and at week 6 by questionnaire and capsule count. Over 42 days, subjects were expected to have consumed a total of 252 capsules. Compliance was calculated as a percentage of consumed capsule count/expected capsule count based on the number of days the subject was in the study. All subjects were asked to stay on their capsules until they come in for their final visit. Compliance in all participants who completed the study was based on capsule count was in excess of 85%, mean 96%.
# Statistical analyses compared mean absolute and percentage changes from baseline and 6 weeks in the active groups versus the placebo group. Analysis of variance, as well as paired t-test analysis were performed with SYSTAT software. […]
smiles,measurement,setting,value
"CCC=CCC=CCC=CCC=CC/C=C\CCCC(=O)O [EPA, cis-5,8, 11, 14, 17-eicosapentaenoic acid]","BMI, 6-Week Change (%)",EPA 600 mg (n = 27),+0.2 ± 2.3%
same,"BMI, Final",EPA 600 mg (n = 27),27.4 ± 3.1 kg/m^2
same,"Diastolic BP, Final",EPA 600 mg (n = 27),80.0 ± 7.9 mm
same,"Pulse, 6-Week Change (%)",EPA 600 mg (n = 27),+2.1 ± 13.6%
same,"Pulse, Final",EPA 600 mg (n = 27),74.7 ± 12.0 beats/min
same,"Systolic BP, 6-Week Change (%)",EPA 600 mg (n = 27),+3.0 ± 10.4%
same,"Systolic BP, Final",EPA 600 mg (n = 27),121.1 ± 12.2 mm Hg
same,"Weight, 6-Week Change (%)",EPA 600 mg (n = 27),+0.2 ± 2.1%
same,"Weight, Final",EPA 600 mg (n = 27),80.4 ± 10.9 kg
same,"BMI, 6-Week Change (%)",EPA 1800 mg (n = 29),+1.1 ± 5.1%
same,"BMI, Final",EPA 1800 mg (n = 29),27.9 ± 5. kg/m2
same,"Diastolic BP, 6-Week Change (%)",EPA 1800 mg (n = 29),+1.4 ± 9.1%
same,"Diastolic BP, Final",EPA 1800 mg (n = 29),77.4 ± 9.0 mm
same,"Pulse, 6-Week Change (%)",EPA 1800 mg (n = 29),+2.7 ± 8.6%
same,"Pulse, Final",EPA 1800 mg (n = 29),70.9 ± 8.5 beats/min
same,"Systolic BP, 6-Week Change (%)",EPA 1800 mg (n = 29),+1.0 ± 7.4%
same,"Systolic BP, Final",EPA 1800 mg (n = 29),119.9 ± 13.4 mm Hg
same,"Weight, 6-Week Change (%)",EPA 1800 mg (n = 29),+1.3 ± 4.6%
same,"Weight, Final",EPA 1800 mg (n = 29),81.6 ± 19.2 kg

# Source: patent US20110178105A1, “CLINICAL BENEFITS OF EICOSAPENTAENOIC ACID IN HUMANS” (E.I. DU PONT DE NEMOURS AND COMPANY, priority 2010, published 2011)
